Measurements as given in patent publication US20070087021A1, “METHOD OF PROTECTING AGAINST CHRONIC INFECTIONS” (priority 1997, published 2007).

Tests used:
[1] = tested on: coccidiosis; assay: Paired-barn comparison repeated: vaccine/monensin treatment vs monensin alone; assay type: in vivo, poultry; details: cockerels
Protocol: (§1) A gel form vaccine was prepared by first adding 200 ml of hot tap water to 5 gm of kappa carrageenan Bengel MB 910 in a container and mixing until the MB 910 had dissolved. To this solution was added 200 ml of a solution containing 500 oocysts per ml of a mixture of Eimeria acervulina, E. maxima and E. tenella and the combined solution was mixed. The solution was then poured into a plastic watering dish and allowed to cool and get at 4° C.
(§2) A paired-barn comparison was conducted between use of a anticoccidial ionophore and the method of the present invention for protecting poultry against coccidiosis. 51,000 birds were divided into two groups. One group was maintained on feed containing 60 mg per kilogram of feed of salinomycin sodium COXISTAC (Pfizer). The second group was administered the vaccine prepared in accordance with Example 1 on Day 1. These birds were maintained on feed with no medication for 10 days. Thereafter, 60 mg per kilogram of salinomycin sodium was utilized in the feed for a further 10 days after which the animals were maintained on non-medicated feed until shipping. A virginiamysin based growth promotant STAFAC (SmithKline Beecham) at a level of 11 mg per kilogram of feed was used as a growth promotant in both groups.
The above example was repeated comparing vaccine/monensin treatment with monensin alone and the results from this are shown in Table 2.

[2] = tested on: coccidiosis; assay: Paired-barn comparison of anticoccidial ionophore (salinomycin) vs vaccine plus salinomycin for protecting poultry against coccidiosis; assay type: in vivo
Protocol: as §1, §2

[3] = birds, market age 42 days / 52 days

Row | SMILES | EEF (European Efficiency Factor) [1] | Feed Conversion Ratio [1] | Avg. Weight ([1]; average at market (Monesin group: market age 47 days)) | Livability (%) ([1]; vaccine group: 2 weeks no medication, then 2 weeks monensin in feed) | Avg. Weight [2, 3] | Feed Conversion Ratio [2, 3] | Livability (%) ([2]; birds, market age 42 days / 52 days, salinomycin sodium 60 mg per kg feed (vaccine group: 10 days no medication, then 10 days salinomycin)) | EEF (European Efficiency Factor) ([2]; related to percent livability, average market weight, feed conversion rate and market age)
1 | CC[C@@]1([C@@H]2O[C@@H]([C@H]3O[C@@](O)(CO)[C@H](C)C[C@@H]3C)C[C@@H]2C)CC[C@H]([C@]2(C)CC[C@]3(C[C@H](O)[C@@H](C)[C@@H]([C@@H](C)[C@@H](OC)[C@H](C)C(=O)O)O3)O2)O1 [Monesin, monensin] | 2.23 | 2.19 | 2.44 kg | 94.1% | – | – | – | –
2 | CC[C@@H](C(=O)[C@@H](C)[C@@H](O)[C@H](C)[C@@H]1O[C@@H]([C@@H](CC)C(=O)O)CC[C@@H]1C)[C@H]1O[C@]2(C=C[C@@H](O)[C@]3(CC[C@@](C)([C@H]4CC[C@](O)(CC)[C@H](C)O4)O3)O2)[C@H](C)C[C@@H]1C [Salinomycin, salinomycin sodium] | – | – | – | – | 2.72 kg | 2.16 | 91.8% | 2.23
